Source: Sander's compilation of Henry's law constants (doi:10.5985/jec.7.81)

Experiment: Henry solubility constant Hcp at 298.15 K (mol/(m3 Pa))
Settings: reference: Kondoh and Nakajima (1997)

| SMILES | Henry solubility constant Hcp |
| --- | --- |
| Cc1cccc(C)c1 [1,3-dimethylbenzene] | 0.0015 |
| CC(Cl)CCl (centres undefined) [1,2-dichloropropane] | 0.0043 |
| Cc1ccc(C)cc1 [1,4-dimethylbenzene] | 0.0015 |
| ClC=C(Cl)Cl [trichloroethene] | 0.0011 |
| CC(Cl)(Cl)Cl [1,1,1-trichloroethane] | 0.00067 |
| CC(C)(Cl)Cl [2,2-dichloropropane] | 0.00071 |
| CCCCc1ccccc1 [butylbenzene] | 0.00091 |
| ClC(Cl)=C(Cl)C(Cl)=C(Cl)Cl [hexachlorobutadiene] | 0.0007 |
| CC=C(Cl)Cl [1,1-dichloropropene] | 0.00054 |
| Cc1ccc(C(C)C)cc1 [1-methyl-4-(1-methylethyl)-benzene] | 0.001 |
| BrCBr [dibromomethane] | 0.012 |
| C=Cc1ccccc1 [ethenylbenzene] | 0.0038 |
| CC(C)(C)c1ccccc1 [(1,1-dimethylethyl)-benzene] | 0.00094 |
| Cc1ccc(C)c(C)c1 [1,2,4-trimethylbenzene] | 0.0023 |
| Brc1ccccc1 [bromobenzene] | 0.0049 |
| Clc1ccccc1 [chlorobenzene] | 0.003 |
| ClCCCCl [1,3-dichloropropane] | 0.011 |
| Cl/C=C\CCl [cis-1,3-dichloropropene] | 0.0063 |
| BrC(Br)Br [tribromomethane] | 0.014 |
| Cl/C=C/CCl [trans-1,3-dichloropropene] | 0.01 |
| ClC(Cl)(Cl)Cl [tetrachloromethane] | 0.00044 |
| ClCC(Br)CBr (centres undefined) [1,2-dibromo-3-chloropropane] | 0.5 |

| SMILES | Henry solubility constant Hcp |
| --- | --- |
| ClCC(Cl)(Cl)Cl [1,1,1,2-tetrachloroethane] | 0.0043 |
| CC(C)c1ccccc1 [(2-propyl)-benzene] | 0.001 |
| Cc1ccc(Cl)cc1 [1-chloro-4-methylbenzene] | 0.0029 |
| C=C(Cl)Cl [1,1-dichloroethene] | 0.00046 |
| Clc1cccc(Cl)c1 [1,3-dichlorobenzene] | 0.0038 |
| ClCCl [dichloromethane] | 0.0037 |
| CCCc1ccccc1 [propylbenzene] | 0.0011 |
| Cc1cc(C)cc(C)c1 [1,3,5-trimethylbenzene] | 0.0015 |
| c1ccccc1 [benzene] | 0.0018 |
| CCC(C)c1ccccc1 (centres undefined) [(1-methylpropyl)-benzene] | 0.00075 |
| ClC(Br)Br [dibromochloromethane] | 0.0098 |
| ClCC(Cl)Cl [1,1,2-trichloroethane] | 0.011 |
| CCc1ccccc1 [ethylbenzene] | 0.0014 |
| ClC(Cl)Br [bromodichloromethane] | 0.0054 |
| Clc1ccc(Cl)cc1 [1,4-dichlorobenzene] | 0.0047 |
| Cc1ccccc1C [1,2-dimethylbenzene] | 0.0019 |
| ClCBr [bromochloromethane] | 0.0078 |
| Cc1ccccc1 [methylbenzene] | 0.0017 |
| ClC(Cl)=C(Cl)Cl [tetrachloroethene] | 0.00069 |
| ClCC(Cl)CCl [1,2,3-trichloropropane] | 0.028 |
| Clc1cccc(Cl)c1Cl [1,2,3-trichlorobenzene] | 0.015 |
| c1ccc2ccccc2c1 [naphthalene] | 0.017 |
